Data: ChEMBL document CHEMBL3132769, “Fragment growing to retain or alter the selectivity of anchored kinase hinge-binding fragments” (Medchemcomm, 2014)

Legend:
[1] = molecular target: RAC-alpha serine/threonine-protein kinase (Homo sapiens) (UniProt P31749); settings: 0.06 uM
Description: Inhibition of human AKT1 catalytic domain expressed in baculovirus assessed as substrate phosphorylation using fluorescence-labelled peptides as substrate at 0.06 uM after 90 mins by microfluidic peptide phosphorylation assay

[2] = molecular target: Tyrosine-protein kinase Lck (Homo sapiens) (UniProt P06239); experiment: Inhibition of human full length LCK expressed in baculovirus assessed as substrate phosphorylation using fluorescence-labelled peptides as substrate at 0.06 uM after 90 mins by microfluidic peptide phosphorylation assay
[3] = molecular target: Calcium/calmodulin-dependent protein kinase type II subunit delta (Homo sapiens) (UniProt Q13557); experiment: Inhibition of human full length CAMK2D expressed in baculovirus assessed as substrate phosphorylation using fluorescence-labelled peptides as substrate at 0.06 uM after 90 mins by microfluidic peptide phosphorylation assay
[4] = molecular target: Protein kinase C beta type (Homo sapiens) (UniProt P05771); experiment: Inhibition of human full length PKC beta2 expressed in baculovirus assessed as substrate phosphorylation using fluorescence-labelled peptides as substrate at 70 uM after 90 mins by microfluidic peptide phosphorylation assay
[5] = molecular target: Serine/threonine-protein kinase PAK 2 (Homo sapiens) (UniProt Q13177); experiment: Inhibition of human truncated PAK2 expressed in Escherichia coli cell assessed as substrate phosphorylation using fluorescence-labelled peptides as substrate at 70 uM after 90 mins by microfluidic peptide phosphorylation assay
[6] = molecular target: Serine/threonine-protein kinase Chk2 (Homo sapiens) (UniProt O96017); experiment: Inhibition of human full length CHK2 expressed in baculovirus assessed as substrate phosphorylation using fluorescence-labelled peptides as substrate at 70 uM after 90 mins by microfluidic peptide phosphorylation assay
[7] = molecular target: Protein kinase C eta type (Homo sapiens) (UniProt P24723); experiment: Inhibition of human truncated PKC eta expressed in baculovirus assessed as substrate phosphorylation using fluorescence-labelled peptides as substrate at 0.2 uM after 90 mins by microfluidic peptide phosphorylation assay
[8] = molecular target: T1, cGMP-dependent protein kinase 1 (Homo sapiens) (UniProt Q13976); experiment: Inhibition of human full length PKG-1beta expressed in baculovirus assessed as substrate phosphorylation using fluorescence-labelled peptides as substrate at 420 uM after 90 mins by microfluidic peptide phosphorylation assay
T1 sequence (whole entry): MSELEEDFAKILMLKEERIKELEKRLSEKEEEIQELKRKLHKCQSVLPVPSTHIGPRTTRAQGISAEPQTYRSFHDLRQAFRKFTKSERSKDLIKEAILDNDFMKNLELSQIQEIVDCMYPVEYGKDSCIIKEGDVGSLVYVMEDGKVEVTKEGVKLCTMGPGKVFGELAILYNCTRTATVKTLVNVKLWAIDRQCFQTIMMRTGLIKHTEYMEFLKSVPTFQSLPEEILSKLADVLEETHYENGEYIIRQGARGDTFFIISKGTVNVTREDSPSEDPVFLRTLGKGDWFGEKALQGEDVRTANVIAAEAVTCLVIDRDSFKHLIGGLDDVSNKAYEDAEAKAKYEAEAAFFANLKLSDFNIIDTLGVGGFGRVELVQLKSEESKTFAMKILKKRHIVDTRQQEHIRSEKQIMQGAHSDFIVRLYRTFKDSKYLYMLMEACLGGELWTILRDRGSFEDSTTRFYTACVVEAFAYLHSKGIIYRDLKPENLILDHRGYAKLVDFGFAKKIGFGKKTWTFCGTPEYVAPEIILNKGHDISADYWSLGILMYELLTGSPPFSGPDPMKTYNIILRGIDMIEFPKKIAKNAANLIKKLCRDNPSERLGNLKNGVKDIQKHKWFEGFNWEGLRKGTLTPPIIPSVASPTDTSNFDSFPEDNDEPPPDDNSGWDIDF

[9] = molecular target: T1, cGMP-dependent protein kinase 1 (Homo sapiens); experiment: Inhibition of human full length PKG-1a expressed in baculovirus assessed as substrate phosphorylation using fluorescence-labelled peptides as substrate at 420 uM after 90 mins by microfluidic peptide phosphorylation assay
[10] = molecular target: Calcium/calmodulin-dependent protein kinase type II subunit gamma (Homo sapiens) (UniProt Q13555); experiment: Inhibition of human CAMK2 gamma catalytic domain expressed in baculovirus assessed as substrate phosphorylation using fluorescence-labelled peptides as substrate at 95 uM after 90 mins by microfluidic peptide phosphorylation assay
[11] = molecular target: Serine/threonine-protein kinase MARK1 (Homo sapiens) (UniProt Q9P0L2); experiment: Inhibition of human full length MARK1 expressed in baculovirus assessed as substrate phosphorylation using fluorescence-labelled peptides as substrate at 95 uM after 90 mins by microfluidic peptide phosphorylation assay
[12] = molecular target: T1, cGMP-dependent protein kinase 1 (Homo sapiens); experiment: Inhibition of human full length PKG-1beta expressed in baculovirus assessed as substrate phosphorylation using fluorescence-labelled peptides as substrate at 95 uM after 90 mins by microfluidic peptide phosphorylation assay
[13] = system: Tyrosine-protein kinase ABL1 (Homo sapiens), P00519 [H396P]; experiment: Inhibition of human truncated ABL H396P mutant expressed in baculovirus assessed as substrate phosphorylation using fluorescence-labelled peptides as substrate at 95 uM after 90 mins by microfluidic peptide phosphorylation assay
[14] = molecular target: T2, Mitogen-activated protein kinase 13 (Homo sapiens) (UniProt O15264); experiment: Inhibition of human full length p38 delta expressed in Escherichia coli cell assessed as substrate phosphorylation using fluorescence-labelled peptides as substrate at 1000 uM after 90 mins by microfluidic peptide phosphorylation assay
T2 sequence (whole entry): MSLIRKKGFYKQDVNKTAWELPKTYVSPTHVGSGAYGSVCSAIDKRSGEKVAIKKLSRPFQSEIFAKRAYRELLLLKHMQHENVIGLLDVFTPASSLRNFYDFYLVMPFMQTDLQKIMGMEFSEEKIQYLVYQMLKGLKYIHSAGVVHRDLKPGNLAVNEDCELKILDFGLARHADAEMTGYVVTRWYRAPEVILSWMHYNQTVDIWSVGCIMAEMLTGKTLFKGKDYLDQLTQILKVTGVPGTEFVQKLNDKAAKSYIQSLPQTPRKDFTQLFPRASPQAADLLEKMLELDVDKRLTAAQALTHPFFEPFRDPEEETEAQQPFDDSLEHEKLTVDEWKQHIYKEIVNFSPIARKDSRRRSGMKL

[15] = molecular target: T1, cGMP-dependent protein kinase 1 (Homo sapiens); experiment: Inhibition of human full length PKG-1beta expressed in baculovirus assessed as substrate phosphorylation using fluorescence-labelled peptides as substrate at 2 uM after 90 mins by microfluidic peptide phosphorylation assay
[16] = molecular target: MAP kinase-activated protein kinase 2 (Homo sapiens) (UniProt P49137); experiment: Inhibition of human full length MAPKAPK2 expressed in baculovirus assessed as substrate phosphorylation using fluorescence-labelled peptides as substrate at 8 uM after 90 mins by microfluidic peptide phosphorylation assay
[17] = molecular target: Mitogen-activated protein kinase kinase kinase kinase 4 (Homo sapiens) (UniProt O95819); experiment: Inhibition of human HGK catalytic domain expressed in baculovirus assessed as substrate phosphorylation using fluorescence-labelled peptides as substrate at 8 uM after 90 mins by microfluidic peptide phosphorylation assay
[18] = molecular target: Proto-oncogene tyrosine-protein kinase Src (Homo sapiens) (UniProt P12931); experiment: Inhibition of human full length SRC expressed in baculovirus assessed as substrate phosphorylation using fluorescence-labelled peptides as substrate at 0.1 uM after 90 mins by microfluidic peptide phosphorylation assay
Proto-oncogene tyrosine-protein kinase Src (Homo sapiens), sequence (P12931 2-536 limits assumed): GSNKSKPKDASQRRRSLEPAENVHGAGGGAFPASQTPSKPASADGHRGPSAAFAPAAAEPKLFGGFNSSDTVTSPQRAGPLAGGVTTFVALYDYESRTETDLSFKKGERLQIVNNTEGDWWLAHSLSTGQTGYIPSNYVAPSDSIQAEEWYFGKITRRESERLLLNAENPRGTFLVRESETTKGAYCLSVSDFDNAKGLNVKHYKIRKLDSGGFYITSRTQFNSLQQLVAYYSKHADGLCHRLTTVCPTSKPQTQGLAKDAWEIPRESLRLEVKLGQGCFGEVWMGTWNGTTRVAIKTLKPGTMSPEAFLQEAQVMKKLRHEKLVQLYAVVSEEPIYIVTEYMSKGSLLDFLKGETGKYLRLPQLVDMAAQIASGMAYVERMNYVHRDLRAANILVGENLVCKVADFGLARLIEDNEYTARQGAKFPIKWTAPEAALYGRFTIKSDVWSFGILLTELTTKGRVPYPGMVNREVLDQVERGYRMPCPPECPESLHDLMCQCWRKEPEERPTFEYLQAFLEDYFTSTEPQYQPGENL

Protein kinase C beta type (Homo sapiens), sequence (P05771 2-671 limits assumed): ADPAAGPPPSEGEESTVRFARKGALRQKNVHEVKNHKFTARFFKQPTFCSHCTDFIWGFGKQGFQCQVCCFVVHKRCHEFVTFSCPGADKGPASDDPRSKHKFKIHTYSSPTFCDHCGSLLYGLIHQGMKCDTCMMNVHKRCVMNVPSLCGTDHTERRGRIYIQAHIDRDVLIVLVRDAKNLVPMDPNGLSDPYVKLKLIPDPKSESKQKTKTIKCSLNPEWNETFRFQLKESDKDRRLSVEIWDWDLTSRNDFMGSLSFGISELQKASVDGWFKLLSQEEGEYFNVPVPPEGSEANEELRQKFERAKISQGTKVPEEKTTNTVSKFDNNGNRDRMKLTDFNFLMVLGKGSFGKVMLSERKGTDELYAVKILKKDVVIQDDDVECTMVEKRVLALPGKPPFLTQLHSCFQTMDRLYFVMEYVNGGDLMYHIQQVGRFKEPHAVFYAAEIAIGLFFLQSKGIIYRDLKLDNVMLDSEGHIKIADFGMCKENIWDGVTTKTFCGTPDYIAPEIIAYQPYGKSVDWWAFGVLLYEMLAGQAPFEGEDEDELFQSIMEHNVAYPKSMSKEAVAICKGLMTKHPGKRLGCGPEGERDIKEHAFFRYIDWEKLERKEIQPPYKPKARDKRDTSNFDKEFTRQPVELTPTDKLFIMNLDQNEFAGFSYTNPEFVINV
RAC-alpha serine/threonine-protein kinase (Homo sapiens), sequence (P31749 whole entry): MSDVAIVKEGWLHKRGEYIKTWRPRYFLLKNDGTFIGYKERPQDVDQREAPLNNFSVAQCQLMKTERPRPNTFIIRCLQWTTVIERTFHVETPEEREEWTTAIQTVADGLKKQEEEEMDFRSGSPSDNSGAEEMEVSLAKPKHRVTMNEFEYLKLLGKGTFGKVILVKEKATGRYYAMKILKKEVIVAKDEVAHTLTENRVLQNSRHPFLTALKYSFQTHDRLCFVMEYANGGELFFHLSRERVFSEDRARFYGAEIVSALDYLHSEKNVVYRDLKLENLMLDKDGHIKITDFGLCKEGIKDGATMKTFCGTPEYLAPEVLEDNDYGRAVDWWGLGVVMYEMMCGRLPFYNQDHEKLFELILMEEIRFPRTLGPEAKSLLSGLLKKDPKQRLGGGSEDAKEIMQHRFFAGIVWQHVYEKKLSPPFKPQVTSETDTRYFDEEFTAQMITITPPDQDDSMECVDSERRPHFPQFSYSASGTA
Protein kinase C eta type (Homo sapiens), sequence (P24723 whole entry, the tested form may be a part): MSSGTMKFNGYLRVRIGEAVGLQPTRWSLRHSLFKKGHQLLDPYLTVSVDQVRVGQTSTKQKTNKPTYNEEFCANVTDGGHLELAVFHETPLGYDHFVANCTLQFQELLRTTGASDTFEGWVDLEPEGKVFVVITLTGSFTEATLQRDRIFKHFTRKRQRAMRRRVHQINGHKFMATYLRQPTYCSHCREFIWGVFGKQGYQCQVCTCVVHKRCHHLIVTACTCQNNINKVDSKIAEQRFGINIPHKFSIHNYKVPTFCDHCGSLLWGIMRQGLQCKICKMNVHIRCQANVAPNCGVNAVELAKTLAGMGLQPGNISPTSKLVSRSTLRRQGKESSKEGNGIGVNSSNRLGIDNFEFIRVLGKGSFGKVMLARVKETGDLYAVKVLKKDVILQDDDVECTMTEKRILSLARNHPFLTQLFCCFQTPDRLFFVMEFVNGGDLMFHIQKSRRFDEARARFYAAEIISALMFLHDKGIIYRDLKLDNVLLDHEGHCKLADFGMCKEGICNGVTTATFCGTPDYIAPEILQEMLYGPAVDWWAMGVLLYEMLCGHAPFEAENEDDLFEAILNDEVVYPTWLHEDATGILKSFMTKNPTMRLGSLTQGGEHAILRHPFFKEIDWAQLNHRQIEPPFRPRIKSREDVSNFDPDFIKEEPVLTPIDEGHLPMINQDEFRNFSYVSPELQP
Mitogen-activated protein kinase kinase kinase kinase 4 (Homo sapiens), sequence (O95819 2-1239 limits assumed): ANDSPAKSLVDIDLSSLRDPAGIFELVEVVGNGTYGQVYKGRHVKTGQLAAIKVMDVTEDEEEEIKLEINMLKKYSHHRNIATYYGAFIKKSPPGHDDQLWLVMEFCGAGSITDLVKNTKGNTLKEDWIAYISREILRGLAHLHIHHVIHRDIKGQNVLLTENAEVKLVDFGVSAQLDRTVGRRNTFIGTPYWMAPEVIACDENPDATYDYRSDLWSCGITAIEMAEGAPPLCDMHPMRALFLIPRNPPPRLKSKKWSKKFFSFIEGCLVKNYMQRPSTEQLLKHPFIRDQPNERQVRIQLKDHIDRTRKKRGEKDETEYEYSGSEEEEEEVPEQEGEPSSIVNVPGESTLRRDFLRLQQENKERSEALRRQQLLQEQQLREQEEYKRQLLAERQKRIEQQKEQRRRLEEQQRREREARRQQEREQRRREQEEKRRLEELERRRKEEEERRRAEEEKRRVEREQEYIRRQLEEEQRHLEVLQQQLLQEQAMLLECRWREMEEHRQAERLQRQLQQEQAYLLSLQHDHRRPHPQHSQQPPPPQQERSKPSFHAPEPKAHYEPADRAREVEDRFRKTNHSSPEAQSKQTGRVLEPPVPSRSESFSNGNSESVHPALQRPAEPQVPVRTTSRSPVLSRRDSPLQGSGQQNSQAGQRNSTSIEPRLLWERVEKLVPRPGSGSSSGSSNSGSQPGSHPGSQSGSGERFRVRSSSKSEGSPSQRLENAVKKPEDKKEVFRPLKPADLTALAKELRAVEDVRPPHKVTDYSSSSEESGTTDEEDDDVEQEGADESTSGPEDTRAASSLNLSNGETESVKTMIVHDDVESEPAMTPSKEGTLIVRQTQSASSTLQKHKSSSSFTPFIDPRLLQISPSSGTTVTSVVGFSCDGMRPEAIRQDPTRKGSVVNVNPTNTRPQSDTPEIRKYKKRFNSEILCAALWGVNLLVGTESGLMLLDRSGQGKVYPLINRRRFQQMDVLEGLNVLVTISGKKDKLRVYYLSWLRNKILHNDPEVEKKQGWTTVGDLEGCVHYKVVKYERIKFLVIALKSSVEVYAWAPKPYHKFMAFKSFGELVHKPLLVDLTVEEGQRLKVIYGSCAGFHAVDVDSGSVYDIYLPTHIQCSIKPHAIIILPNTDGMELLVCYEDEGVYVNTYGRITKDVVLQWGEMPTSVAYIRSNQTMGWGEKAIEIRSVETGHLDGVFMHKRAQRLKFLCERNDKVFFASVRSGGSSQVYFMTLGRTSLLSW
Calcium/calmodulin-dependent protein kinase type II subunit delta (Homo sapiens), sequence (Q13557 whole entry): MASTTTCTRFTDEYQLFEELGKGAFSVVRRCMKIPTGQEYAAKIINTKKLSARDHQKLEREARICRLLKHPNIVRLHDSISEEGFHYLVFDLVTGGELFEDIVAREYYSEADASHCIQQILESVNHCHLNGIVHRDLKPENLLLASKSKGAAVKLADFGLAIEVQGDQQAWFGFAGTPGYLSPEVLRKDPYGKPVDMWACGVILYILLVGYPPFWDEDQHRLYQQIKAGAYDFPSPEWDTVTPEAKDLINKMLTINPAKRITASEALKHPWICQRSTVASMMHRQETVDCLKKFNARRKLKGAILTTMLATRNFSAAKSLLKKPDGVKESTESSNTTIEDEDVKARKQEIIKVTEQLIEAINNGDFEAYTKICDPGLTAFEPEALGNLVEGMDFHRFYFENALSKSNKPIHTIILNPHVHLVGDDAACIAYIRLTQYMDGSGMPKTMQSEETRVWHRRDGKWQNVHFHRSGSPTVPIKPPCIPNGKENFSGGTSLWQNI
MAP kinase-activated protein kinase 2 (Homo sapiens), sequence (P49137 whole entry, looked up, the tested form may be a part): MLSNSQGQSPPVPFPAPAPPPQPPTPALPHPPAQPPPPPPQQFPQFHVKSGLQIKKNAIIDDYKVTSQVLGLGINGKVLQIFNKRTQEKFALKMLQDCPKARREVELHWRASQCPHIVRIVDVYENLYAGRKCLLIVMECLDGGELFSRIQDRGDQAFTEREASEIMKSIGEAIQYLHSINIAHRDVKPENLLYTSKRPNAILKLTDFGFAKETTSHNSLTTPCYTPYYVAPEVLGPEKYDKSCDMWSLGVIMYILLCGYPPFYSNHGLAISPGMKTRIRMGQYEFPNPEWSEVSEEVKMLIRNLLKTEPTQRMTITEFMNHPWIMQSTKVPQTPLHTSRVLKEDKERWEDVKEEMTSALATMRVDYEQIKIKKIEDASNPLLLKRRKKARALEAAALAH
Serine/threonine-protein kinase Chk2 (Homo sapiens), sequence (O96017 whole entry, the tested form may be a part): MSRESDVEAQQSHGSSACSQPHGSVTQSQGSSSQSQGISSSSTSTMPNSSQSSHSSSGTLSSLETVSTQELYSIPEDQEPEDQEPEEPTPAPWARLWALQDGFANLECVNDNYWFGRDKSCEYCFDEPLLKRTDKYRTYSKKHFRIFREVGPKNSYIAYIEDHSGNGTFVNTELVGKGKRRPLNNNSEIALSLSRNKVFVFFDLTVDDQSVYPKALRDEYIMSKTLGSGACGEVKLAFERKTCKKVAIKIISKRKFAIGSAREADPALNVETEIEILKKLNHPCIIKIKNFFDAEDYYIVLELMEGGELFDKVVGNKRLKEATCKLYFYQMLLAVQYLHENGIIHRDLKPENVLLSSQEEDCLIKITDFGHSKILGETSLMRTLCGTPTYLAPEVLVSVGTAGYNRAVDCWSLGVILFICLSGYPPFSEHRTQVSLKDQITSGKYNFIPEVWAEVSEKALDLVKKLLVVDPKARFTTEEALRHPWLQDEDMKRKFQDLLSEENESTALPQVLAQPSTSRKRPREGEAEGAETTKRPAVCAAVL

## NC1(Cc2ccc(Cl)cc2)CCN(c2ncnc3[nH]ccc23)CC1
[1]
  inhibition: 34%
[2]
  inhibition: 0%
[3]
  inhibition: 0%

## CNCc1ccc(-c2ncnc3[nH]cnc23)cc1
[4]
  inhibition: 0%
[5]
  inhibition: 26%
[6]
  inhibition: 57.5%

## Clc1ccc(C2(c3ccc(-c4ncnc5[nH]cnc45)cc3)CCNCC2)cc1
[7]
  inhibition: 36.5%

## c1nc(N2CCOCC2)c2nc[nH]c2n1
[8]
  inhibition: 95.5%
[9]
  inhibition: 98%

## NCCc1ccc(-c2ncnc3[nH]cnc23)cc1
[10]
  inhibition: 30%
[11]
  inhibition: 97%
[12]
  inhibition: 93%
[13]
  inhibition: 69.5%

## c1cnc2[nH]ccc2c1
[14]
  inhibition: 51%

## NC1CCN(c2ncnc3[nH]ccc23)CC1
[15]
  inhibition: 8.5%

## NCC1CCN(c2ncnc3[nH]ccc23)CC1
[16]
  inhibition: 81%
[17]
  inhibition: 11.5%

## C[C@H](CN(C)C)Oc1nc(Nc2cc3cccc(Cl)c3cn2)cnc1C#N
[18]
  inhibition: 3%
